Where two headings read alike, the source gives them in different places.
Tests used:
[1] = molecular target: T1, recombinant human Lp-PLA2 (Homo sapiens, UniProt Q13093); test: Recombinant human Lp-PLA2 assay (rhLp-PLA2, PED6 assay); type: biochemical
T1 sequence (Q13093 22-441): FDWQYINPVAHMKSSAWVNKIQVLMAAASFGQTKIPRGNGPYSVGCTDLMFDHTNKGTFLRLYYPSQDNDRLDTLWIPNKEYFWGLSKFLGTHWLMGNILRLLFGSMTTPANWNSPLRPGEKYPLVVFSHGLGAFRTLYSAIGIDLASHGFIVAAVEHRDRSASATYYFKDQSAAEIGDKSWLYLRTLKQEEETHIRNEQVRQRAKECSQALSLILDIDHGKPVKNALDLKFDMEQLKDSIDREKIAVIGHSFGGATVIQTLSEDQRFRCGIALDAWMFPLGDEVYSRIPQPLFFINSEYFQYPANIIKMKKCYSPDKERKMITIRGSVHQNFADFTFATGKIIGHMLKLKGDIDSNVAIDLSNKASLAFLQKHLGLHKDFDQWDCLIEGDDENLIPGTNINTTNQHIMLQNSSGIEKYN
Text: (1) Recombinant Human Lp-PLA2 Assay (rhLp-PLA2) (Also Referred to as “PED6” Assay)
N-((6-(2,4-dinitrophenyl)amino)-hexanoyl)-2-(4,4-difluoro-5,7-dimethyl-4-bora-3a,4a-diaza-s-indacene-3-pentanoyl)-1-hexadecanoyl-sn-glycero-3-phosphoethanolamine, triethylammonium salt (PED6) is a commercially available fluorescently-labeled phospholipid, which is commercially available from Invitrogene and Molecular Probes. There is a quenching […] and a Bodipy fluorescein (FL) group in the sn2 position. Upon cleavage with Lp-PLA2, the Bodipy FL group is liberated and then may result in an increase in fluorescence. Inhibitors of Lp-PLA2 therefore prevent this cleavage and no fluorescent increase is observed.
The PED6 assay was run as an unquenched 10 μL assay. The source plate containing the compounds to be tested was prepared by making 1:3 (by volume) serial dilution of the compounds within DMSO on 384-well microplate. Then, 0.01 μL of the compounds on compound source plate were transferred into 384 well Greiner 784076 (black) plates using ECHO liquid dispenser. 5 μL of recombinant human Lp-PLA2 enzyme (4 nM (or […]) rhLp-PLA2 in assay buffer of 50 mM HEPES, pH 7.4, 150 mM NaCl, 1 mM CHAPS) was added to each well of the plate. Plates were centrifuged for 10 sec at 500 rpm. After 30 minutes preincubation, 5 μL of substrate ([…] PED6 [from 5 mM DMSO stock] in assay buffer of 50 mM HEPES, pH 7.4, 150 mM NaCl, 1 mM CHAPS) was added to 384 well Greiner 784076 (black) plates. Plates were centrifuged for 10 sec at 500 rpm. The plate was covered to protect it from light and incubated for 20 min at room temperature. The plates were read for fluorescence intensity at ex: 480/em: 540 using ViewLux microplate imager for Envision spectrofluoroimeters pIC50 data, curve and QC analysis was conducted by using XL fit module in Excel.

Lp-PLA2 in human plasma = molecular target: T2, Lp-PLA2 in human plasma (Homo sapiens, UniProt Q13093); test: Lp-PLA2 human plasma assay (Thio-PAF assay); type: biochemical; settings: pooled human plasma; lower bounds; read-out: pIC50 values in the thio-PAF assay (converted)
T2 construct: from tissue; host or cells: pooled human plasma
T2 sequence (Q13093 22-441): T1 sequence (Q13093 22-441)
Text: (3) Lipoprotein-Associated Phospholipase A2 (Lp-PLA2) Human Plasma Assay (Also Referred to as “Thio-PAF assay”)
The human plasma assay utilizes a thioester analog of PAF (phosphatidylcholine), where hydrolysis yields to the formation of a phospholipid containing a free thiol group. The amount of thiol is quantitated continuously by reacting with CPM (7-diethylamino-3-(4′-maleimidylphenyl)-4-methylcoumarin), a maleimide which increases in fluoresence after Michael addition of thiols. This assay may detect the activity of Lp-PLA2 in human plasma, as determined by specific inhibition by Lp-PLA2 inhibitors.
The thio-PAF assay was run as a quenched 15 μL assay. Compounds source plate was prepared by making 1:3 (by volume) serial dilution of the compounds into pure DMSO on 384-well microplate. 0.01 μL of compounds on compound source plate were transferred to 384 well Greiner 784076 (black) low-volume plates by ECHO liquid dispenser. 8 μL pooled human plasma, which was previously aliquoted and frozen, was added. Plates were centrifuged for 10 sec at 500 rpm. After 30 minutes preincubation, 2 μL of substrate solution comprising 2.5 mM 2-thio-PAF [from ethanol stock], 32 μM CPM [from a DMSO stock] and 3.2 mM NEM (N-ethylmaleimide) [made fresh daily in DMSO] in assay buffer of 50 mM HEPES, pH 7.4, 150 mM NaCl, 1 mM CHAPS was added to 384 well Greiner 784076 (black) low-volume plates by BRAVO liquid handling station. After 2 mins, reaction was quenched with 5 μL of 5% aqueous trifluoroacetic acid (TFA). Plates were covered to protect from light and incubated for 40 min at room temperature. Plates were read at ex: 380/em: 485 using-Envision microplate reader. PIC50 data, curve and QC analysis were conducted by using XLFit module in Excel.

[2] = lower bounds, read-out: pIC50 values in the PED6 assay (converted)
[3] = read-out: rhLp-PLA2 (PED6 assay) (pIC50) (converted)

IC50 [1, 2] [nM] | IC50 (Lp-PLA2 in human plasma) [nM] | IC50 [1, 3] [nM] | Structure (SMILES)
≤ 10 | ≤ 100 |  | C[C@H]1Cn2c(cc(OCc3cc(F)c(F)c(F)c3)nc2=O)N1 [Example E49, (S)-2-methyl-7-((3,4,5-trifluorobenzyl)oxy)-2,3-dihydroimidazo[1,2-c]pyrimidin-5(1H)-one]
≤ 1 | ≤ 100 |  | CC1(C)Cn2c(cc(OCc3cc(F)c(F)c(F)c3)nc2=O)N1 [Example E50, 2,2-dimethyl-7-((3,4,5-trifluorobenzyl)oxy)-2,3-dihydroimidazo[1,2-c]pyrimidin-5(1H)-one]
≤ 1 | ≤ 100 |  | C[C@@H]1Cn2c(cc(OCc3ccc(Oc4ccnc(C(F)(F)F)c4)c(F)c3)nc2=O)N1C [Example E51, (R)-7-((3-fluoro-4-((2-(trifluoromethyl)pyridin-4-yl)oxy)benzyl)oxy)-1,2-dimethyl-2,3-dihydroimidazo[1,2-c]pyrimidin-5(1H)-one]
≤ 10 | ≤ 100 |  | C[C@@H]1Cn2c(cc(OCc3ccc(F)c(C#N)c3)nc2=O)N1C [Example E53, (R)-5-(((1,2-dimethyl-5-oxo-1,2,3,5-tetrahydroimidazo[1,2-c]pyrimidin-7-yl)oxy)methyl)-2-fluorobenzonitrile]
≤ 1 | ≤ 100 | 0.126 | C[C@H]1Cn2c(cc(OCc3ccc(Oc4cncc(C(F)(F)F)c4)c(F)c3)nc2=O)N1C [Example E54, (S)-7-((3-fluoro-4-((5-(trifluoromethyl)pyridin-3-yl)oxy)benzyl)oxy)-1,2-dimethyl-2,3-dihydroimidazo[1,2-c]pyrimidin-5(1H)-one]
≤ 1 | ≤ 100 |  | C[C@H]1Cn2c(cc(OCc3ccc(Oc4cncc(C(F)(F)F)c4)c(C#N)c3)nc2=O)N1C [Example E55, (S)-5-(((1,2-dimethyl-5-oxo-1,2,3,5-tetrahydroimidazo[1,2-c]pyrimidin-7-yl)oxy)methyl)-2-((5-(trifluoromethyl)pyridin-3-yl)oxy)benzonitrile]
≤ 1 | ≤ 100 | 0.1 | C[C@H]1Cn2c(cc(OCc3cc(F)c(Oc4cncc(C(F)(F)F)c4)c(F)c3)nc2=O)N1C [Example E56, (S)-7-((3,5-difluoro-4-((5-(trifluoromethyl)pyridin-3-yl)oxy)benzyl)oxy)-1,2-dimethyl-2,3-dihydroimidazo[1,2-c]pyrimidin-5(1H)-one]
≤ 1 | ≤ 100 | 0.0631 | C[C@H]1Cn2c(cc(OCc3cc(F)c(Oc4ccnc(C(F)(F)F)c4)c(F)c3)nc2=O)N1C [Example E58, (S)-7-((3,5-difluoro-4-((2-(trifluoromethyl)pyridin-4-yl)oxy)benzyl)oxy)-1,2-dimethyl-2,3-dihydroimidazo[1,2-c]pyrimidin-5(1H)-one]

Second part, the compound before the results:

Structure (SMILES) | IC50 [1, 2] [nM] | IC50 (Lp-PLA2 in human plasma) [nM] | IC50 [1, 3] [nM]
CC1Cn2c(cc(OCc3ccc(Oc4ccnc(C(F)(F)F)c4)c(F)c3)nc2=O)N1C (stereo not shown) [Example E31, 7-((3-fluoro-4-((2-(trifluoromethyl)pyridin-4-yl)oxy)benzyl)oxy)-1,2-dimethyl-2,3-dihydroimidazo[1,2-c]pyrimidin-5(1H)-one] | ≤ 1 | ≤ 100 | 
CC1(C)Cn2c(cc(OCc3ccc(Oc4ccc(C(F)(F)F)nc4)c(F)c3)nc2=O)N1 [Example E37, 7-((3-fluoro-4-((6-(trifluoromethyl)pyridin-3-yl)oxy)benzyl)oxy)-2,2-dimethyl-2,3-dihydroimidazo[1,2-c]pyrimidin-5(1H)-one] | ≤ 1 | ≤ 100 | 
CC1(C)Cn2c(cc(OCc3ccc(Oc4ccnc(C(F)(F)F)c4)c(F)c3)nc2=O)N1 [Example E38, 7-((3-fluoro-4-((2-(trifluoromethyl)pyridin-4-yl)oxy)benzyl)oxy)-2,2-dimethyl-2,3-dihydroimidazo[1,2-c]pyrimidin-5(1H)-one] | ≤ 1 | ≤ 100 | 
CC1(C)Cn2c(cc(OCc3cc(F)c(Oc4ccc(C(F)(F)F)nc4)c(F)c3)nc2=O)N1 [Example E39, 7-((3,5-difluoro-4-((6-(trifluoromethyl)pyridin-3-yl)oxy)benzyl)oxy)-2,2-dimethyl-2,3-dihydroimidazo[1,2-c]pyrimidin-5(1H)-one] | ≤ 1 | ≤ 100 | 
C[C@H]1Cn2c(cc(OCc3ccc(Oc4cnc(C(F)(F)F)nc4)c(F)c3)nc2=O)N1C [Example E40, (S)-7-((3-fluoro-4-((2-(trifluoromethyl)pyrimidin-5-yl)oxy)benzyl)oxy)-1,2-dimethyl 2,3-dihydroimidazo[1,2-c]pyrimidin-5(1H)-one] | ≤ 10 | ≤ 100 | 
CC1(C)Cn2c(cc(OCc3ccc(Oc4cncc(C(F)(F)F)c4)c(F)c3)nc2=O)N1 [Example E41, 7-((3-fluoro-4-((5-(trifluoromethyl)pyridin-3-yl)oxy)benzyl)oxy)-2,2-dimethyl-2,3-dihydroimidazo[1,2-c]pyrimidin-5(1H)-one] | ≤ 1 | ≤ 100 | 
CN1c2cc(OCc3ccc(F)c(C#N)c3)nc(=O)n2CC1(C)C [Example E42, 2-fluoro-5-(((1,2,2-trimethyl-5-oxo-1,2,3,5-tetrahydroimidazo[1,2-c]pyrimidin-7-yl)oxy)methyl)benzonitrile] | ≤ 1 | ≤ 100 | 0.316
CN1c2cc(OCc3ccc(Oc4cnc(C(F)(F)F)nc4)c(F)c3)nc(=O)n2CC1(C)C [Example E43, 7-((3-fluoro-4-((2-(trifluoromethyl)pyrimidin-5-yl)oxy)benzyl)oxy)-1,2,2-trimethyl-2,3-dihydroimidazo[1,2-c]pyrimidin-5(1H)-one] | ≤ 1 | ≤ 100 | 0.0501
CC1(C)Cn2c(cc(OCc3ccc(Oc4ccc(Cl)nc4)c(F)c3)nc2=O)N1 [Example E44, 7-((4-((6-chloropyridin-3-yl)oxy)-3-fluorobenzyl)oxy)-2,2-dimethyl-2,3-dihydroimidazo[1,2-c]pyrimidin-5(1H)-one] | ≤ 1 | ≤ 100 | 
CC1(C)Cn2c(cc(OCc3cc(F)c(Oc4ccnc(Cl)c4)c(F)c3)nc2=O)N1 [Example E45, 7-((4-((2-chloropyridin-4-yl)oxy)-3,5-difluorobenzyl)oxy)-2,2-dimethyl-2,3-dihydroimidazo[1,2-c]pyrimidin-5(1H)-one] | ≤ 1 | ≤ 100 | 
CC(C)N1c2cc(OCc3cccc(F)c3F)nc(=O)n2CC1(C)C [Example E46, 7-((2,3-difluorobenzyl)oxy)-1-isopropyl-2,2-dimethyl-2,3-dihydroimidazo[1,2-c]pyrimidin5(1H)-one] | ≤ 10 | ≤ 100 | 3.98
C[C@@H]1Cn2c(cc(OCc3cc(F)c(F)c(F)c3)nc2=O)N1C [Example E48, (R)-1,2-dimethyl-7-((3,4,5-trifluorobenzyl)oxy)-2,3-dihydroimidazo[1,2-c]pyrimidin-5(1H)-one] | ≤ 10 | ≤ 100 | 

Source: patent US9051325B2, “Bicyclic [5,6] imidazo pyrimodone compounds for use in the treatment of diseases or conditions mediated by Lp-PLA2” (GlaxoSmithKline Intellectual Property Development Limited, priority 2013, dated 2015)
